Results reported in ChEMBL document CHEMBL1201862, “PubChem BioAssay data set” (2004).
The source made the active and inactive calls.

Key:
[1] = biological target: Glycogen synthase kinase-3 beta (Homo sapiens, UniProt P49841); assay: Inhibition of Human GSK-3 beta Activity Measured in Biochemical System Using Microfluidics - 2063-05_Inhibitor_Dose_DryPowder_Activity. [Related pubchem assays (depositor defined):AID2709]
[2] = biological target: Glycogen synthase kinase-3 alpha (Homo sapiens, UniProt P49840); assay: Inhibition of Human GSK-3 alpha Activity Measured in Biochemical System Using Microfluidics - 2063-06_Inhibitor_Dose_DryPowder_Activity. [Related pubchem assays (depositor defined):AID2709]
CAAX prenyl protease 1 = CAAX prenyl protease 1 (Saccharomyces cerevisiae S288c, UniProt P47154); assay: yeast CAAX protease Ste24 inhibition – biochemical, S. cerevisiae, plate reader, cherry-pick, dose response (AID 488815)
Trypsin = Trypsin (Sus scrofa, UniProt P00761); assay: trypsin protease activity blockade – biochemical, quenched peptide fluorescence, cherry-pick, selectivity assay for Rce1 protease inhibitor project, dose response (AID 488789)
CAAX prenyl protease 2 = CAAX prenyl protease 2 (Homo sapiens, UniProt Q9Y256); assay: inhibition of Ras-converting CAAX protease Rce1 – biochemical, yeast membranes, quenched-peptide fluorescence, cherry-pick, dose response (AID 588849)
Escherichia coli = assay: microbe, parasite or virus in culture
[3] = biological target: Dual specificity protein phosphatase 3 (Homo sapiens, UniProt P51452); assay: SAR VHR1 Fluorescent Assay for In Vitro dose response studies Set 3. [Related pubchem assays (depositor defined):AID1654, AID1661, AID1878]; assay type: functional
Phospholipase D2 = Phospholipase D2 (Homo sapiens, UniProt O14939); assay: cellular phospholipase D2 inhibition IC50 – cell-based, dose response (AID 602147); assay type: functional;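 also: cellular assay in HEK293 cells overexpressing GFP-tagged PLD2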
Phospholipase D1 = Phospholipase D1 (Homo sapiens, UniProt Q13393); assay: cellular phospholipase D1 inhibition IC50 – cell-based, dose response (AID 602151); assay type: functional;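 also: cellular PLD1 assay in Calu-1 cells stimulated with PMA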
[4] = biological target: 5-hydroxytryptamine receptor 5A (Homo sapiens, UniProt P47898); assay: Counterscreen for agonists of OPRM1-OPRD1 heterodimerization: luminescence-based cell-based high throughput dose response assay to identify agonists of 5-hydroxytryptamine (serotonin) 5A receptor (HTR5A). [Related pubchem assays (depositor defined):AID504326, AID504355, AID504692, AID504904, AID504905]; assay type: functional
[5] = biological target: Luciferin 4-monooxygenase (Photinus pyralis, UniProt P08659); assay: inhibition of purified Photinus pyralis luciferase – biochemical, luminescence, dose response (AID 1891)
BJ [6] = assay: cells; assay type: functional, cell-based; details: Homo sapiens
Mu-type opioid receptor = Mu-type opioid receptor (Homo sapiens, UniProt P35372); assay: (§1) Counterscreen for agonists of heterodimerization of the mu 1 (OPRM1) and delta 1 (OPRD1) opioid receptors: Luminescence-based cell-based high throughput dose response assay to identify agonists of OPRM1 homodimerization.; assay type: functional
BJ [7] = assay: BJ-TERT-LT-ST fibroblast viability loss – cell-based, RAS-independent, luminescence, dose response (AID 1935); assay type: functional; details: Homo sapiens;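 also: BJ fibroblasts immortalized with TERT plus LT and ST oncogenes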
BJ [8] = assay: BJ-TERT fibroblast viability loss – cell-based, RAS-independent, luminescence, dose response (AID 1933); assay type: functional; details: Homo sapiens
[9] = DRD fibroblast viability loss – cell-based, non-viral oncogenic, luminescence, dose response (AID 1934); assay type: functional; details: Homo sapiens
BJ [10] = assay: growth inhibition of engineered Ras-driven BJ cells – cell-based, alamar blue fluorescence, cherrypicked samples, dose response (AID 2631); assay type: functional; details: Homo sapiens;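 also: confirmatory dose-response assay in RAS-dependent BJ fibroblasts engineered with TERT, LT and ST, with cytotoxicity read by fluorescence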
[11] = Luminescence Cell-Based Dose Confirmation HTS to Identify Inhibitors of Platelet Dense Granule Release. [Related pubchem assays: 1663 (Primary HTS), 1678 (Summary of Project)]; assay type: functional
[12] = biological target: Delta-type opioid receptor (Homo sapiens, UniProt P41143); assay: as §1, with “of OPRD1” for “of OPRM1”, “homodimerization. [Related pubchem assays (depositor defined):AID504326, AID504355, AID504692, AID504904, AID504905]” for “homodimerization.”; assay type: functional
Sequence of Delta-type opioid receptor (P41143 whole entry): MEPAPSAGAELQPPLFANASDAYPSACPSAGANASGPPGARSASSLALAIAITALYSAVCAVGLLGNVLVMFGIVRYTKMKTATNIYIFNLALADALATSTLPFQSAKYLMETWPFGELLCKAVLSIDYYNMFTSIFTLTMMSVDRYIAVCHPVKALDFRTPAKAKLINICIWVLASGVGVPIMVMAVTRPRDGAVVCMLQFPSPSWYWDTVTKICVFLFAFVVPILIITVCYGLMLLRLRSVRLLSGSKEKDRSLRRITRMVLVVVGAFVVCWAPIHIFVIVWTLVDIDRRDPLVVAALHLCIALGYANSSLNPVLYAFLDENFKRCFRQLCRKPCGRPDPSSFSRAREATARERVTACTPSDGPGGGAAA

Sequence of Glycogen synthase kinase-3 alpha (P49840 whole entry): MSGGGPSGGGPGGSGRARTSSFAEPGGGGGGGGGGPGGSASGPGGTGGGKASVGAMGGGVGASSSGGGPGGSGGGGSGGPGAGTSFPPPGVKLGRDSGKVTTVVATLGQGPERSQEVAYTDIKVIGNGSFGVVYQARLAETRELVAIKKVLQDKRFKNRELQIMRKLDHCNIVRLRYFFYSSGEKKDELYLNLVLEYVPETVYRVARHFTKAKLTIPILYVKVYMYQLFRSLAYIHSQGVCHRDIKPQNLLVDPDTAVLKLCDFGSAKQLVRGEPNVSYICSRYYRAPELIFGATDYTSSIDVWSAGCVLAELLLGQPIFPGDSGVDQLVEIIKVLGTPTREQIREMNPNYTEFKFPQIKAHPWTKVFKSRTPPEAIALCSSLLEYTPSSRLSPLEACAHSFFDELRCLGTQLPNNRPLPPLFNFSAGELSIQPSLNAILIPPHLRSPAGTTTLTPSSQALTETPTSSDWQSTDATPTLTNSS
Sequence of Glycogen synthase kinase-3 beta (P49841 whole entry): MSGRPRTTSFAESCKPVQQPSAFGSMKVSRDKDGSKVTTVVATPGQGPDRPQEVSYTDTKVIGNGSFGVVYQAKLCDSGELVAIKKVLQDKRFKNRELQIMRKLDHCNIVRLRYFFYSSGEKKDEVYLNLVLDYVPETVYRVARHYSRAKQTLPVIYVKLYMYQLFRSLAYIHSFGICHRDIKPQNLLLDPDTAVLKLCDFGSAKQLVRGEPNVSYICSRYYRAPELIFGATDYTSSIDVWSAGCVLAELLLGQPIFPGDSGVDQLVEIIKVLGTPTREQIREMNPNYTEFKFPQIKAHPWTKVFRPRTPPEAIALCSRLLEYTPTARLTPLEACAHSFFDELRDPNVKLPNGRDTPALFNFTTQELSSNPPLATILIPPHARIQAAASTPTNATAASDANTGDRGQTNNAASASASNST
Sequence of 5-hydroxytryptamine receptor 5A (P47898 whole entry): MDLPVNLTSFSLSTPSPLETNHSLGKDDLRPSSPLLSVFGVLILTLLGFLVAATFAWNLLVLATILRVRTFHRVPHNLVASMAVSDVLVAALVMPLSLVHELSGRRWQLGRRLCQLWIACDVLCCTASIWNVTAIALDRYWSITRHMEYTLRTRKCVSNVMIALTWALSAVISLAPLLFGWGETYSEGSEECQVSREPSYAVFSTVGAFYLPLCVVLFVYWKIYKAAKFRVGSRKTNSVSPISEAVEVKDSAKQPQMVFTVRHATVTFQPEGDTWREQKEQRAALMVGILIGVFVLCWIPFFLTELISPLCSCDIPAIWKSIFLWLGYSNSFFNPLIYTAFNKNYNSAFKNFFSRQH
Sequence of Luciferin 4-monooxygenase (P08659 whole entry): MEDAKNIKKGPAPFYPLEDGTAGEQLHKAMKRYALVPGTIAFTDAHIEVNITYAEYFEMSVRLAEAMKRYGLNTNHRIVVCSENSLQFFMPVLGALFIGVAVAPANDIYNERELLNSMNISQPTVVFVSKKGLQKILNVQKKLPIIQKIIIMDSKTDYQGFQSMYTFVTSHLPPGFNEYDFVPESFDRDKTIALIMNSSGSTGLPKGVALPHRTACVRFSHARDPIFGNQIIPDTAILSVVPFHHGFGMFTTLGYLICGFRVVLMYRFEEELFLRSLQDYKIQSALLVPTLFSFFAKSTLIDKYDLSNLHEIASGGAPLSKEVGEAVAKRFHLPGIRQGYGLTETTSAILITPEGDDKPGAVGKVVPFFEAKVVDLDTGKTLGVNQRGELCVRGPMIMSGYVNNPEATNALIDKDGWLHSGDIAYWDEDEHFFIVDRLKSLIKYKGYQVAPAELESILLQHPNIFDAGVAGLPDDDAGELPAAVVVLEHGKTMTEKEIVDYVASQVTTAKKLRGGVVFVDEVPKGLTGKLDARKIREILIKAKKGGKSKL
Sequence of Dual specificity protein phosphatase 3 (P51452 whole entry): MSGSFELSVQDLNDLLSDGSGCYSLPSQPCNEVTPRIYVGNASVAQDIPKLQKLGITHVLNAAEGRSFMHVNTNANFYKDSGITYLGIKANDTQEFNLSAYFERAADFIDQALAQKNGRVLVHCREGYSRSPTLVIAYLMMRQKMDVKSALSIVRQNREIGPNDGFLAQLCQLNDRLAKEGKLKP
Sequence of Mu-type opioid receptor (P35372 whole entry): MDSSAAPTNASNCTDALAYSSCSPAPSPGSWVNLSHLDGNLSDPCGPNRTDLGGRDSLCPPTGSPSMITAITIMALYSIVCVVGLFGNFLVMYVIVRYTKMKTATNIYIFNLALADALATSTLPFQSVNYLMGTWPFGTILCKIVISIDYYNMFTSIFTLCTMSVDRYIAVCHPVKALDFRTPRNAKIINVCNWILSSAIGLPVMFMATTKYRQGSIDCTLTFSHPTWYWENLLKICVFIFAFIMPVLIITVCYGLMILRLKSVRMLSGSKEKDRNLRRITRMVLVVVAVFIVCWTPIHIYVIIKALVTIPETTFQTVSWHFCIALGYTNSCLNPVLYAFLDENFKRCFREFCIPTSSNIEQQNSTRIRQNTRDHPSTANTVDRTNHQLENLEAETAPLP
Sequence of CAAX prenyl protease 1 (P47154 whole entry): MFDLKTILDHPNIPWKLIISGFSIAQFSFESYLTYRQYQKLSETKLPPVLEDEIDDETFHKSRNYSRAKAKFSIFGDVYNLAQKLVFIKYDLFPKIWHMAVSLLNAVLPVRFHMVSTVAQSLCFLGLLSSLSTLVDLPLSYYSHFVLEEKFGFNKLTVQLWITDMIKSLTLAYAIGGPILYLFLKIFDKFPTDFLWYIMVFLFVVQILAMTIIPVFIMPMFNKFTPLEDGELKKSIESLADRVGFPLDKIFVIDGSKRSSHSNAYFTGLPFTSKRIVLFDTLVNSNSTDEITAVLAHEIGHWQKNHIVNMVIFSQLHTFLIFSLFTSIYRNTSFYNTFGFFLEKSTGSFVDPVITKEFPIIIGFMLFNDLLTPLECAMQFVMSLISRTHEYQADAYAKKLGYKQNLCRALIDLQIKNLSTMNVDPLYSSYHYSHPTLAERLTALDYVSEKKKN
Sequence of Trypsin (P00761 whole entry): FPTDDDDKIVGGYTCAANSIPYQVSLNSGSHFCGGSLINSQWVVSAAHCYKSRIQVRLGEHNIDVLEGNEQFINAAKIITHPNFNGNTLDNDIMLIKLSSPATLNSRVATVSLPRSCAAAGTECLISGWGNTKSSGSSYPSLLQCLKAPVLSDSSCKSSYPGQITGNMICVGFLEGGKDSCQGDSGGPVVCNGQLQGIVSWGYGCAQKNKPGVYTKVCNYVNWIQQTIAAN
Sequence of CAAX prenyl protease 2 (Q9Y256 whole entry): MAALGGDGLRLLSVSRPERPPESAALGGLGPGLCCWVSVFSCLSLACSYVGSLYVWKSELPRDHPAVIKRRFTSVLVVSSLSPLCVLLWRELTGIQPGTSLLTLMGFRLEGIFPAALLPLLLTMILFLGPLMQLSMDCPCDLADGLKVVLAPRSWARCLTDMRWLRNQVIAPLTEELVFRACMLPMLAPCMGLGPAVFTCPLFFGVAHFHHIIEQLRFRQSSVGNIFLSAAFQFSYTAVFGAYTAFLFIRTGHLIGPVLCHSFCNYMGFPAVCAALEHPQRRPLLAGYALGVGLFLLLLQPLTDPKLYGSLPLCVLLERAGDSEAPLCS
Sequence of Phospholipase D1 (Q13393 whole entry): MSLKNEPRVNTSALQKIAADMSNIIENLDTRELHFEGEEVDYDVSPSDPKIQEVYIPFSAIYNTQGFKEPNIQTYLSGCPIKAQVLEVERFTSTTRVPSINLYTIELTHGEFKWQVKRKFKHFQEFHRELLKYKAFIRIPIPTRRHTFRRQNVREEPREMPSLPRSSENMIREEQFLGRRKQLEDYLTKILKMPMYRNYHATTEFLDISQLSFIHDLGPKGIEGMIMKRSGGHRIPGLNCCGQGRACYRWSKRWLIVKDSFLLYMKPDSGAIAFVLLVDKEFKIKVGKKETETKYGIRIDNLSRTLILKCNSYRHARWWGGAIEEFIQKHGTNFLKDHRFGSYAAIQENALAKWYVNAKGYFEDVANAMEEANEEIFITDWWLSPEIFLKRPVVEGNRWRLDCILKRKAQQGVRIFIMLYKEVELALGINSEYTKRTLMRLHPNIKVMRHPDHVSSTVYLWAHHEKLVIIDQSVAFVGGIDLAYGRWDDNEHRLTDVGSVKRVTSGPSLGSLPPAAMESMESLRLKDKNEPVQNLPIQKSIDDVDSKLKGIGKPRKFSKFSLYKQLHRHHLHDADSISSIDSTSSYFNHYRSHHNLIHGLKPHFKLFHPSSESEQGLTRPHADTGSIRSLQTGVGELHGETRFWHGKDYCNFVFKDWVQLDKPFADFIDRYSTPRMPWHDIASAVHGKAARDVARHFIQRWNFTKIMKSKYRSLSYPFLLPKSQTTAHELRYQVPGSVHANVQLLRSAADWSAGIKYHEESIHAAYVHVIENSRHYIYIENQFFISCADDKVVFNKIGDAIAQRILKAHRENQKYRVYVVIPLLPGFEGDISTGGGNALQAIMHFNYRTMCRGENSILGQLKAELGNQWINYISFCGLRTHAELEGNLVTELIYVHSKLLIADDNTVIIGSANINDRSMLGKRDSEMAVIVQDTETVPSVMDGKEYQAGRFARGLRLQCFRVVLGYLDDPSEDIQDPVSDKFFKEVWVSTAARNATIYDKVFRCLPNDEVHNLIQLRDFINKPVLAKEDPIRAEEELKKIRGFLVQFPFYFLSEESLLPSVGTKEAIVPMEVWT

## CCOC(=O)c1nnn(-c2nonc2N)c1CSc1ccc(C)cc1
[1]
  AC50: 1.19 µM (active)
[2]
  AC50: 8.32 µM (active)

## CC(Oc1ccc2c3c(c(=O)oc2c1)CCCC3)C(=O)NC1CC(C)(C)NC(C)(C)C1 (centres undefined)
CAAX prenyl protease 1
  AC50: 2.88 µM (active)
Trypsin
  AC50: 9.81 µM (active)
CAAX prenyl protease 2
  AC50: 16.2 µM (active)

## COc1ccc(S(=O)(=O)N2CCN(CC(=O)Nc3c(C)n[nH]c3C)CC2)cc1OC
Escherichia coli
  AC50: 62.1 µM (active)

## COc1cccc2sc(NC(=O)c3ccccc3)nc12
[3]
  IC50: > 66 µM (inactive)

## C[C@H](CN1CCC2(CC1)C(=O)NCN2c1ccccc1)NC(=O)c1ccc(F)cc1
Phospholipase D2
  IC50: 0.2 µM (active)
Phospholipase D1
  IC50: 0.413 µM (active)

## Cc1occc1C(=O)N/N=C/c1ccc(-c2ccccc2)cc1
[4]
  EC50: > 92.4 µM (inactive)
[5]
  EC50: 0.151 µM (active)
BJ [6]
  EC50: 3.14 µM (active)
Mu-type opioid receptor
  EC50: > 92.4 µM (inactive)
BJ [7]
  EC50: 10.3 µM (active)
BJ [8]
  EC50: 4.43 µM (active)
[9]
  EC50: 3.41 µM (active)
BJ [10]
  EC50: > 133 µM (inactive)
[11]
  EC50: 0.897 µM (active)
[12]
  EC50: > 92.4 µM (inactive)
